ChEMBL document CHEMBL1201862, “PubChem BioAssay data set” (2004)
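In this assay, cells in 96-well plates receive the compound at five concentrations for 48 hours. Endpoints are linearly interpolated between the surrounding concentrations. At the GI50, growth is halved.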 Active and inactive are the calls of the source. Rule as the data show it: active = GI50 up to about 1.1 µM and inactive = higher.

Legend:
Experiment in all cases: NCI tumour cell line growth inhibition, 48 h
HCT-116 = tested on: HCT-116
HCT-15 = tested on: HCT-15
HL-60 = tested on: HL-60
IGROV-1 = tested on: IGROV-1
Malme-3M = tested on: Malme-3M
NCI-H226 = tested on: NCI-H226
NCI-H522 = tested on: NCI-H522
OVCAR-5 = tested on: OVCAR-5
RXF 393 = tested on: RXF 393
SF-268 = tested on: SF-268
SK-MEL-2 = tested on: SK-MEL-2
SK-MEL-5 = tested on: SK-MEL-5
SK-OV-3 = tested on: SK-OV-3
SNB-19 = tested on: SNB-19
SNB-75 = tested on: SNB-75
SR = tested on: SR
TK-10 = tested on: TK-10
UO-31 = tested on: UO-31
CAKI-1 = tested on: CAKI-1
PC-3 = tested on: PC-3

SMILES | GI50 (HCT-116) | GI50 (HCT-15) [µM] | GI50 (HL-60) | GI50 (IGROV-1) | GI50 (Malme-3M) | GI50 (NCI-H226) | GI50 (NCI-H522) | GI50 (OVCAR-5) | GI50 (RXF 393) | GI50 (SF-268) | GI50 (SK-MEL-2) | GI50 (SK-MEL-5) | GI50 (SK-OV-3) | GI50 (SNB-19) | GI50 (SNB-75) | GI50 (SR) | GI50 (TK-10) | GI50 (UO-31) | GI50 (CAKI-1) | GI50 (PC-3)
COc1cccc(-c2nccc3c(OCc4ccccc4)c(OC)c(OC)cc23)c1 | 7.57 µM (inactive) | 4.72 | 4.25 µM (inactive) | > 100 µM (inactive) | 2.94 µM (inactive) | > 100 µM (inactive) | > 100 µM (inactive) | > 100 µM (inactive) | 4.51 µM (inactive) | > 100 µM (inactive) | 30.1 µM (inactive) | 8.97 µM (inactive) | > 100 µM (inactive) | > 100 µM (inactive) | > 100 µM (inactive) | 6.68 µM (inactive) | > 100 µM (inactive) | 7.29 µM (inactive) |  | 
C=C1C(=O)O[C@H]2C(=O)[C@H](C)CCC[C@@](C)(O)/C=C\C[C@@]3(C)O[C@@H]3C[C@@H]12 | 7.29 µM (inactive) | 11.5 |  | 20.3 µM (inactive) |  | 82.2 µM (inactive) | 2.88 µM (inactive) | 1.68 µM (inactive) |  | 23.3 µM (inactive) | 19.5 µM (inactive) | 15.2 µM (inactive) | > 100 µM (inactive) | 35.8 µM (inactive) |  |  | 4.19 µM (inactive) | 13.5 µM (inactive) | 12.9 µM (inactive) | 17 µM (inactive)
O=C(/C=C/c1ccccc1O)c1cccs1 | > 100 µM (inactive) | > 100 | > 100 µM (inactive) | > 100 µM (inactive) | > 100 µM (inactive) | > 100 µM (inactive) | > 100 µM (inactive) | > 100 µM (inactive) | > 100 µM (inactive) | > 100 µM (inactive) | > 100 µM (inactive) | > 100 µM (inactive) | > 100 µM (inactive) | > 100 µM (inactive) | > 100 µM (inactive) | > 100 µM (inactive) | > 100 µM (inactive) | > 100 µM (inactive) | > 100 µM (inactive) | 
Cc1nc(-c2nc([N+](=O)[O-])c([N+](=O)[O-])[nH]2)cs1 | > 100 µM (inactive) |  | > 100 µM (inactive) | > 100 µM (inactive) | > 100 µM (inactive) | > 100 µM (inactive) | > 100 µM (inactive) | > 100 µM (inactive) | > 100 µM (inactive) | 88.9 µM (inactive) | > 100 µM (inactive) | > 100 µM (inactive) | > 100 µM (inactive) | > 100 µM (inactive) | > 100 µM (inactive) | > 100 µM (inactive) | > 100 µM (inactive) | > 100 µM (inactive) | > 100 µM (inactive) | 
CC1(C)[C@@H](Cn2nnc3c(N)ncnc32)CC[C@@]1(C)CO | > 100 µM (inactive) | > 100 |  |  |  | > 100 µM (inactive) |  | > 100 µM (inactive) | > 100 µM (inactive) | > 100 µM (inactive) | > 100 µM (inactive) | 55 µM (inactive) | > 100 µM (inactive) | > 100 µM (inactive) | > 100 µM (inactive) |  | > 100 µM (inactive) | > 100 µM (inactive) | > 100 µM (inactive) | > 100 µM (inactive)
O=C1c2ccccc2C(=O)N1CCn1nc(-c2ccccc2)cc(-c2ccccc2)c1=O | 66.8 µM (inactive) | 38.2 | 8.51 µM (inactive) | 74.8 µM (inactive) | > 100 µM (inactive) | 50.1 µM (inactive) | 18.6 µM (inactive) | > 100 µM (inactive) | > 100 µM (inactive) | > 100 µM (inactive) | 82 µM (inactive) | 52.5 µM (inactive) | > 100 µM (inactive) | > 100 µM (inactive) | 46.7 µM (inactive) | 5.4 µM (inactive) |  | 18.9 µM (inactive) |  | 
O=C1NN=C(c2ccc([N+](=O)[O-])cc2)C1n1nc(-c2ccccc2)c2ccccc2c1=O (stereo not given) | > 63.8 µM (inactive) | > 45.2 | > 45.6 µM (inactive) | > 100 µM (inactive) | > 100 µM (inactive) | > 100 µM (inactive) | > 100 µM (inactive) | > 100 µM (inactive) | > 100 µM (inactive) | > 100 µM (inactive) | > 100 µM (inactive) | > 100 µM (inactive) | > 100 µM (inactive) | > 100 µM (inactive) | > 95.5 µM (inactive) | > 68.2 µM (inactive) | > 100 µM (inactive) | > 100 µM (inactive) | > 100 µM (inactive) | 
COc1ccc(C2=CC3CCC2C3)cc1 (stereo not given) | > 100 µM (inactive) | > 100 | 50 µM (inactive) | > 100 µM (inactive) | > 100 µM (inactive) |  | > 100 µM (inactive) | > 100 µM (inactive) | > 100 µM (inactive) | > 100 µM (inactive) | > 100 µM (inactive) | > 100 µM (inactive) | 12.2 µM (inactive) | > 100 µM (inactive) | > 100 µM (inactive) | > 100 µM (inactive) | > 100 µM (inactive) | > 100 µM (inactive) | > 100 µM (inactive) | 
NC(=O)c1csc(CCCCCCc2nc(C(N)=O)cs2)n1 | > 56.2 µM (inactive) | > 100 | > 100 µM (inactive) | > 100 µM (inactive) | > 100 µM (inactive) | > 100 µM (inactive) | > 100 µM (inactive) | > 100 µM (inactive) | > 100 µM (inactive) | > 100 µM (inactive) | > 100 µM (inactive) | > 100 µM (inactive) | > 100 µM (inactive) | > 100 µM (inactive) | > 100 µM (inactive) | > 100 µM (inactive) | > 100 µM (inactive) | > 100 µM (inactive) | > 100 µM (inactive) | 
O=C(O)C1Cc2[nH]c3ccccc3c2C2CCCC12 (stereo not given) | > 100 µM (inactive) | > 100 |  | > 100 µM (inactive) | > 100 µM (inactive) | 5.15 µM (inactive) | > 100 µM (inactive) | > 100 µM (inactive) |  | > 100 µM (inactive) | > 100 µM (inactive) | > 100 µM (inactive) | > 100 µM (inactive) | > 100 µM (inactive) | 46.3 µM (inactive) | > 100 µM (inactive) | > 100 µM (inactive) | > 100 µM (inactive) | > 100 µM (inactive) | 
C=CCCCC1CCCNC1=S (stereo not given) | > 100 µM (inactive) | > 100 |  | > 100 µM (inactive) |  | > 100 µM (inactive) | > 100 µM (inactive) | > 100 µM (inactive) | > 100 µM (inactive) | > 100 µM (inactive) | > 100 µM (inactive) | > 100 µM (inactive) | > 100 µM (inactive) | > 100 µM (inactive) | > 100 µM (inactive) |  | > 100 µM (inactive) | > 100 µM (inactive) | > 100 µM (inactive) | > 100 µM (inactive)
C#C[C@H]1CCCCCC1O (stereo not given in full) | > 100 µM (inactive) | > 100 | 36.1 µM (inactive) | > 100 µM (inactive) | 65.6 µM (inactive) | > 100 µM (inactive) | > 100 µM (inactive) | > 100 µM (inactive) | > 100 µM (inactive) | > 100 µM (inactive) | > 100 µM (inactive) | > 100 µM (inactive) | > 100 µM (inactive) | > 100 µM (inactive) | > 100 µM (inactive) | 97.7 µM (inactive) | > 100 µM (inactive) | > 100 µM (inactive) | > 100 µM (inactive) | 
Oc1cccc2nc3cc(CN4CCOCC4)c(CN4CCOCC4)cc3nc12 | 52.2 µM (inactive) | 37.4 | 33.3 µM (inactive) | > 100 µM (inactive) | 57.5 µM (inactive) | 68.7 µM (inactive) | 30.9 µM (inactive) | 43.8 µM (inactive) | 77.3 µM (inactive) | 48.2 µM (inactive) | > 100 µM (inactive) | 24.4 µM (inactive) | 50.6 µM (inactive) | > 100 µM (inactive) | > 100 µM (inactive) | 40.2 µM (inactive) | > 100 µM (inactive) | 29.6 µM (inactive) | > 100 µM (inactive) | 
O=C(c1ccccc1)c1c(CC(O)c2cccnc2)n(C(=O)c2ccccc2)c2ccccc12 (stereo not given) | 15.9 µM (inactive) | 21.3 | 21.5 µM (inactive) | 19.1 µM (inactive) | 23.8 µM (inactive) | 11.7 µM (inactive) | 13.1 µM (inactive) | 17.9 µM (inactive) |  | 20 µM (inactive) | 20.3 µM (inactive) | 16.9 µM (inactive) |  | 18.9 µM (inactive) | 3.72 µM (inactive) | 13.5 µM (inactive) | 26.9 µM (inactive) | 14.1 µM (inactive) | 26.4 µM (inactive) | 
COc1cc2ccc3c4c(OC)cc(OC)c(OC)c4c([O-])[n+](C)c3c2cc1OC | 11.5 µM (inactive) |  | 1.33 µM (inactive) | 6.98 µM (inactive) | 17.5 µM (inactive) |  | 2.55 µM (inactive) | 11.1 µM (inactive) |  | 3.46 µM (inactive) | 21.9 µM (inactive) | 9.02 µM (inactive) | > 33 µM (inactive) | 15.7 µM (inactive) | 11.8 µM (inactive) | 0.759 µM (active) | > 40.3 µM (inactive) | > 34 µM (inactive) | > 20.6 µM (inactive) | 
CCC(C#N)NCc1cccc(CNC(C#N)CC)c1 (stereo not given) | > 100 µM (inactive) | > 100 | > 100 µM (inactive) | > 100 µM (inactive) | > 100 µM (inactive) | > 100 µM (inactive) | > 100 µM (inactive) | 20 µM (inactive) |  | > 100 µM (inactive) | > 100 µM (inactive) | > 100 µM (inactive) | 18.4 µM (inactive) | > 100 µM (inactive) |  |  | > 100 µM (inactive) | > 100 µM (inactive) | > 100 µM (inactive) | > 100 µM (inactive)
